Conditions: 101.33 kPa, Liquid

CCC1COC(=O)O1 (configuration not stated) [1,2-butylene carbonate]
Conditions | mass density [kg/m3]
283 K | 1155.2
293.1 K | 1146.6
295.1 K | 1144.9
297.1 K | 1143.3
299.1 K | 1141.7
301.1 K | 1140.1
303.1 K | 1138.6

— the NIST ThermoML archive (doi:10.1021/je800583r)
